{"source": "ChEMBL document CHEMBL3046464", "about": "“3D quantitative structureactivity relationship for quinoline, benzimidazole and benzofuran-based analogs as phosphodiesterases IV (PDE-IV) inhibitors” (Med Chem Res, 2013)", "target": "Phosphodiesterase 4 (Homo sapiens, UniProt P27815+Q08499+Q07343+Q08493)", "assay": "Inhibition of PDE4 in Homo sapiens (human) U937 cells", "assay_type": "cell-based", "details": "u-937", "data": [{"smiles": "CO/N=C(\\C)c1ccc2c(C(=O)Nc3c(Cl)cncc3Cl)ccc(OC)c2n1", "values": [{"measurement": "pIC50", "result": 6.678}]}, {"smiles": "COc1ccc(C(=O)Nc2c(Cl)cncc2Cl)c2c1ncn2C", "values": [{"measurement": "pIC50", "result": 5}]}]}
